Assay results as given in ChEMBL document CHEMBL5625200 (Eur J Med Chem, 2023).
pIC50: −log10 of the molar value.

biological target: T1, Endothelin-1 receptor (Homo sapiens, UniProt P25101); assay: Antagonist activity against human ET-1 by ELISA analysis; format: functional
T1 sequence (P25101 whole entry): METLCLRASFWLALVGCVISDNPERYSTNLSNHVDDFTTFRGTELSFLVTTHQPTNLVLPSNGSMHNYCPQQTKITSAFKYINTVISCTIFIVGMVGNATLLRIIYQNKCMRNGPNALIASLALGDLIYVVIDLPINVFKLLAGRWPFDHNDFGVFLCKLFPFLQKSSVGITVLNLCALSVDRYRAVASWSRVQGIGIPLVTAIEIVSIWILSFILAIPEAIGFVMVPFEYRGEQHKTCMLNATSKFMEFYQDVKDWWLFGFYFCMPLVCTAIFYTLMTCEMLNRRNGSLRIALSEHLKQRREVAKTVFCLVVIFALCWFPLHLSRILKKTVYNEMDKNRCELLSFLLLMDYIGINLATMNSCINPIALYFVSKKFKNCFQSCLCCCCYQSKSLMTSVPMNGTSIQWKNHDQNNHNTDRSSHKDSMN

pIC50 | SMILES
8.36 | CC#CCOc1nc(-c2ncccn2)nc(NS(=O)(=O)c2ccccc2)c1Oc1ccccc1OC
9.01 | CC/C=C/CCOc1nc(-c2ncccn2)nc(NS(=O)(=O)c2ccccc2)c1Oc1ccccc1OC
8.94 | COc1ccccc1Oc1c(NS(=O)(=O)c2ccc(C)cc2)nc(-c2ncccn2)nc1OCC1CCCCN1C (stereo not given)
8.67 | CC#CCOc1nc(-c2ncccn2)nc(NS(C)(=O)=O)c1Oc1ccccc1OC
8.62 | C=CCCOc1nc(-c2ncccn2)nc(NS(C)(=O)=O)c1Oc1ccccc1OC
8.91 | C=CCCOc1nc(-c2ncccn2)nc(NS(=O)(=O)c2ccc(C(C)(C)C)cc2)c1Oc1ccccc1OC
8.61 | COc1ccccc1Oc1c(NS(=O)(=O)c2ccc(C)cc2)nc(-c2ncccn2)nc1OCC1CCCN(C)C1 (stereo not given)
8.66 | COc1ccccc1Oc1c(NS(C)(=O)=O)nc(-c2ncccn2)nc1OCC1CCCC1
8.62 | COc1ccccc1Oc1c(NS(C)(=O)=O)nc(-c2ncccn2)nc1OCC1CC1
8.42 | C=CCCOc1nc(-c2ncccn2)nc(NS(=O)(=O)c2ccccc2)c1Oc1ccccc1OC
8.94 | COc1ccccc1Oc1c(NS(=O)(=O)c2ccc(C(C)(C)C)cc2)nc(-c2ncccn2)nc1OCC1CCCC1
8.66 | COc1ccccc1Oc1c(NS(C)(=O)=O)nc(-c2ncccn2)nc1OCC1CCCCN1C (stereo not given)
8.52 | CC#CCOc1nc(-c2ncccn2)nc(NS(=O)(=O)c2ccc(C)cc2)c1Oc1ccccc1OC
8.92 | COc1ccccc1Oc1c(NS(=O)(=O)c2ccc(C)cc2)nc(-c2ncccn2)nc1OCC1CC1
8.70 | COc1ccccc1Oc1c(NS(C)(=O)=O)nc(-c2ncccn2)nc1OCC1CCCN(C)C1 (stereo not given)
8.32 | COc1ccccc1Oc1c(NS(=O)(=O)c2ccc(C)cc2)nc(-c2ncccn2)nc1OCC(F)F
8.86 | COc1ccccc1Oc1c(NS(=O)(=O)c2ccc(C)cc2)nc(-c2ncccn2)nc1OCCC(C)C
8.56 | COc1ccccc1Oc1c(NS(=O)(=O)c2ccccc2)nc(-c2ncccn2)nc1OCC1CCCC1
9.33 | COc1ccccc1Oc1c(NS(C)(=O)=O)nc(-c2ncccn2)nc1OCC(F)F
8.41 | CC/C=C/CCOc1nc(-c2ncccn2)nc(NS(=O)(=O)c2ccc(C)cc2)c1Oc1ccccc1OC
8.79 | COc1ccccc1Oc1c(NS(=O)(=O)c2ccc(C)cc2)nc(-c2ncccn2)nc1OCC1CCCC1
8.74 | COc1ccccc1Oc1c(NS(=O)(=O)c2ccccc2)nc(-c2ncccn2)nc1OCC1CCC1

The next lines start with the compound.

SMILES | pIC50
COc1ccccc1Oc1c(NS(=O)(=O)c2ccc(C(C)(C)C)cc2)nc(-c2ncccn2)nc1OCC1CCCN(C)C1 (stereo not given) | 8.84
COc1ccccc1Oc1c(NS(=O)(=O)c2ccc(C)cc2)nc(-c2ncccn2)nc1OCC1CCC1 | 8.49
COc1ccccc1Oc1c(NS(=O)(=O)c2ccc(C(C)(C)C)cc2)nc(-c2ncccn2)nc1OCC1CCC1 | 8.98
COc1ccccc1Oc1c(NS(C)(=O)=O)nc(-c2ncccn2)nc1OCC1CCCN1C (stereo not given) | 8.63
COc1ccccc1Oc1c(NS(=O)(=O)c2ccc(C)cc2)nc(-c2ncccn2)nc1OCC1CCCN1C (stereo not given) | 8.45
COc1ccccc1Oc1c(NS(=O)(=O)c2ccc(C(C)(C)C)cc2)nc(-c2ncccn2)nc1OCC1CC1 | 8.91
COc1ccccc1Oc1c(NS(=O)(=O)c2ccccc2)nc(-c2ncccn2)nc1OCCC(C)C | 8.76
COc1ccccc1Oc1c(NS(=O)(=O)c2ccc(C(C)(C)C)cc2)nc(-c2ncccn2)nc1OCC1CCCN1C (stereo not given) | 8.84
COc1ccccc1Oc1c(NS(C)(=O)=O)nc(-c2ncccn2)nc1OCC1CCC1 | 8.77
C=CCCOc1nc(-c2ncccn2)nc(NS(=O)(=O)c2ccc(C)cc2)c1Oc1ccccc1OC | 8.42
COc1ccccc1Oc1c(NS(=O)(=O)c2ccc(C(C)(C)C)cc2)nc(-c2ncccn2)nc1OCCC(C)C | 8.32
CC/C=C/CCOc1nc(-c2ncccn2)nc(NS(=O)(=O)c2ccc(C(C)(C)C)cc2)c1Oc1ccccc1OC | 8.40
COc1ccccc1Oc1c(NS(=O)(=O)c2ccccc2)nc(-c2ncccn2)nc1OCC1CC1 | 8.61
COc1ccccc1Oc1c(NS(=O)(=O)c2ccc(C(C)(C)C)cc2)nc(-c2ncccn2)nc1OCC(F)F | 9.11
COc1ccccc1Oc1c(NS(=O)(=O)c2ccccc2)nc(-c2ncccn2)nc1OCC1CCCN(C)C1 (stereo not given) | 8.47
COc1ccccc1Oc1c(NS(=O)(=O)c2ccc(C(C)(C)C)cc2)nc(-c2ncccn2)nc1OCC1CCCCN1C (stereo not given) | 8.59
COc1ccccc1Oc1c(NS(=O)(=O)c2ccccc2)nc(-c2ncccn2)nc1OCC1CCCCN1C (stereo not given) | 8.72
COc1ccccc1Oc1c(NS(=O)(=O)c2ccccc2)nc(-c2ncccn2)nc1OCC(F)F | 9.06
